# Results from publication PMC10451032 (ACS Central Science, 2023).
# Legend:
# [1] = test system: triple mutant L50F/E166A/L167F; settings: cited from earlier work
# [2] = test system: triple mutant L50F/E166A/L167F; settings: cited from earlier work; remark: listed apart in the source
# [3] = test system: rNsp5^WT recombinant SARS-CoV-2; experiment: microbe, parasite or virus in culture; assay type: cell-based; settings: Severe acute respiratory syndrome coronavirus 2
structure (smiles),measurement,setting,value
CC(C)(C)[C@H](NC(=O)C(F)(F)F)C(=O)N1C[C@H]2[C@@H]([C@H]1C(=O)N[C@H](C#N)C[C@@H]1CCNC1=O)C2(C)C [nirmatrelvir],EC50 increase in the antiviral assay,[1],51 fold
same,IC50 increase in the enzymatic assay,[2],72 fold
same,EC50,[3],0.0255 µM
